Test results: patent US9561231B2 (AbbVie Inc., priority 2012, dated 2017)
Like-named read-outs stand apart in the source and are kept apart here. Marks after values point to notes of the source that are not given here.

What was measured:
[1] = biological target: T1, first (BD1: amino acids K57-E168) bromodomain of BRD4 (Homo sapiens, UniProt O60885); assay: TR-FRET bromodomain binding assay, BRD4 BD1; settings: Ki calculated from IC50, probe Kd and probe concentration, read-out: TR-FRET Binding Ki: BRD4 (BDI_K57-E168)
T1 construct: His-tagged first (BD1: amino acids K57-E168)
Method in brief: (§1)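 His-tagged BRD4 bromodomain competed against an Alexa647-labeled BET-inhibitor probe by TR-FRET in 20 mM sodium phosphate pH 6.0, 50 mM NaCl, 1 mM EDTA, 0.01% Triton X-100, 1 mM DTT.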

[2] = biological target: T2, second (BD2: amino acids E352-E168) bromodomain of BRD4 (Homo sapiens, UniProt O60885); assay: TR-FRET bromodomain binding assay, BRD4 BD2; settings: Ki calculated from IC50, probe Kd and probe concentration, read-out: TR-FRET Binding Ki: BRD4 (BDII_E352-M457)
T2 construct: protocol
Method in brief: as §1

[3] = tested on: breast cancer cell line MX-1; assay: MX-1 cell line proliferation assay (3-day); format: cell-based; settings: Homo sapiens, MX1, MX-1 cells, Cell Titer Glo, read-out: Cellular proliferation: EC50
Method in brief: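 MX-1 cells in RPMI/10% FBS, plated 5000/well overnight, then exposed to compound at final 3 to 0.0001 μM (3-fold series) for 3 days at 37° C. Cell Titer Glo luminescence normalized to DMSO-treated cells; EC50 from sigmoidal curve fit.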

[4] = tested on: MV4-11 human AML xenograft; assay: Xenograft tumor growth inhibition assay: MV4-11; format: in vivo, SCID-beige female mice; settings: QDx14, tumor volumes study day 31
Protocol: (§2) The effect of example compounds to inhibit growth of human tumor xenografts implanted in mice was evaluated. Briefly, cells obtained from culture (MV4-11 and OPM-2) or tumor brie (MX-1) were suspended in cell culture medium (MEM, Suspension, no Calcium, no Glutamine, Life Technologies Corporation) containing Matrigel (phenol red free, Becton Dickinson Biosciences Discovery Labware) and inoculated subcutaneously (approximately 5 million per site) into the right hind flank of SCID-beige (MV4-11 and OPM-2) or SCID (MX-1) female mice (Charles Rivers Labs) on study day 0.
(§3) Tumors were measured with a pair of calipers twice a week starting at the time of size match and tumor volumes were calculated according to the formula V=L×W^2/2 (V: volume, mm^3; L: length, mm. W: width, mm). Tumor volume was measured throughout the treatment period or until the mean tumor volume in each group reached an endpoint of >1000 mm^3.

[5] = tested on: OPM-2 human multiple myeloma cancer xenograft; assay: Xenograft tumor growth inhibition assay: OPM-2; format: in vivo, SCID-beige female mice
Protocol: as §2, §3

[6] = tested on: MX-1 human breast cancer xenograft; assay: Xenograft tumor growth inhibition assay: MX-1
Protocol: as §2, §3

[7] = tested on: LPS induced IL-6 production; assay: LPS (lipopolysaccharide) induced IL-6 production mouse assay; settings: 1 h before LPS 2.5 mg/kg i.p., serum IL-6 2 h after LPS, p<0.05
Protocol: Severe combined immunodeficient female mice (5 per group) received an intraperitoneal challenge of lipopolysaccharide (2.5 mg/kg, L2630 E. coli 0111:B4) one hour after oral administration of compounds. Mice were euthanized 2 hours after lipopolysaccharide injection, blood was removed by cardiac puncture, and then the serum harvested from the blood samples was frozen at −80° C. On the day of the assay the serum samples were brought to room temperature and then diluted 1:20 in phosphate-buffered saline containing 2% bovine serum albumin. Interleukin-6 measurements were performed using a cytokine assay from Meso Scale Discovery (Gaithersburg, Md.) for mouse serum analysis according to the manufacturer's protocol and read on a SECTOR Imager 6000 (Meso Scale Discovery, Gaithersburg, Md.) instrument. Statistical analysis was performed using Prism software (version 5.0) incorporating Dunnett's one way ANOVA. The IL-6 mean and standard deviation of the group of vehicle treated animals were compared with the IL-6 mean and standard deviation of the group treated with drug. A p value <0.05 means that there is less than a 5% probability that the mean values in the two groups are equal.

[8] = TR-FRET assay protocol (A-G, compound concentration range)
[9] = 30 mg/kg/day PO, QDx14, endpoint 1000 mm^3
[10] = 3 mg/kg/day PO, QDx21, endpoint 1000 mm^3
[11] = 1 mg/kg/day PO, QDx21, endpoint 1000 mm^3
[12] = 3 mg/kg/day PO, QDx21, tumor volumes study day 27
[13] = TR-FRET assay protocol (D, E or G) per compound

SMILES	Ki [1, 8] [nM]	Ki [2, 8] [nM]	EC50 ([3]; 72 h incubation) [nM]	Inhibition of LPS induced IL-6 production, % inhibition ([7]; 3 mg/kg oral)	further results
Cn1cc(-c2cc(NS(C)(=O)=O)ccc2Oc2ccc(F)cc2F)ccc1=O [Example 240, N-[4-(2,4-difluorophenoxy)-3-(1-methyl-6-oxo-1,6-dihydropyridin-3-yl)phenyl]methanesulfonamide]	28.2	107	285		% TGI (tumor growth inhibition) ([4]; 3 mg/kg/day PO): 0%; % TGI (tumor growth inhibition) ([4]; 10 mg/kg/day PO): 23%; % TGI (tumor growth inhibition) ([4]; 30 mg/kg/day PO): 65^b** %; % TGI (tumor growth inhibition) ([5]; 30 mg/kg/day PO, QDx14): 36** %; % TGD (tumor growth delay) [5, 9]: 113** %; % TGD (tumor growth delay) ([6]; 3 mg/kg/day PO, QDx14, endpoint 1000 mm^3): 20%; % TGI (tumor growth inhibition) ([6]; 3 mg/kg/day PO, QDx14, tumor volumes study day 27): 40* %; % TGD (tumor growth delay) ([6]; 10 mg/kg/day PO, QDx14, endpoint 1000 mm^3): 35** %; % TGI (tumor growth inhibition) ([6]; 10 mg/kg/day PO, QDx14, tumor volumes study day 27): 55*** %; % TGD (tumor growth delay) [6, 9]: 51*** %; % TGI (tumor growth inhibition) ([6]; 30 mg/kg/day PO, QDx14, tumor volumes study day 27): 61*** %; Inhibition of LPS induced IL-6 production, % inhibition ([7]; 30 mg/kg oral): 72.6 @ 30 mg/kg %
COc1cc(=O)n(C)cc1-c1cc(NS(C)(=O)=O)ccc1Oc1ccc(F)cc1F [Example 270, N-[4-(2,4-difluorophenoxy)-3-(4-methoxy-1-methyl-6-oxo-1,6-dihydropyridin-3-yl)phenyl]methanesulfonamide]	25.6	10.9	138	68.8 @ 3 mg/kg %	% TGI (tumor growth inhibition) ([5]; 3 mg/kg/day PO, QDx21): 42* %; % TGD (tumor growth delay) [5, 10]: 17%; % TGI (tumor growth inhibition) ([5]; 10 mg/kg/day PO, QDx21): 60%; % TGD (tumor growth delay) ([5]; 10 mg/kg/day PO, QDx21, endpoint 1000 mm^3): 59** %
CCS(=O)(=O)Nc1ccc(Oc2ccc(F)cc2F)c(-c2cn(C)c(=O)cc2OC)c1 [Example 271, N-[4-(2,4-difluorophenoxy)-3-(4-methoxy-1-methyl-6-oxo-1,6-dihydropyridin-3-yl)phenyl]ethanesulfonamide]	9.76	1.55	47.3	76.9 @ 3 mg/kg %	% TGI (tumor growth inhibition) ([5]; 1 mg/kg/day PO, QDx21): 66* %; % TGD (tumor growth delay) [5, 11]: 51*** %; % TGI (tumor growth inhibition) ([5]; 3 mg/kg/day PO, QDx21): 73* %; % TGD (tumor growth delay) [5, 10]: 93*** %
CCOc1cc(=O)n(C)cc1-c1cc(NS(=O)(=O)CC)ccc1Oc1ccc(F)cc1F [Example 285, N-[4-(2,4-difluorophenoxy)-3-(4-ethoxy-1-methyl-6-oxo-1,6-dihydropyridin-3-yl)phenyl]ethanesulfonamide]				84.0 @ 3 mg/kg %	% TGD (tumor growth delay) [6, 10]: 140^d** %; % TGI (tumor growth inhibition) [6, 12]: 84^d*** %
CCCOc1cc(=O)n(C)cc1-c1cc(NS(=O)(=O)CC)ccc1Oc1ccc(F)cc1F [Example 292, N-[4-(2,4-difluorophenoxy)-3-(1-methyl-6-oxo-4-propoxy-1,6-dihydropyridin-3-yl)phenyl]ethanesulfonamide]	4.97	1.73	45	58.0 @ 3 mg/kg %	
CCS(=O)(=O)Nc1ccc(Oc2ccc(F)cc2F)c(-c2cn(C)c(=O)cc2OCC(F)(F)F)c1 [Example 293, N-{4-(2,4-difluorophenoxy)-3-[1-methyl-6-oxo-4-(2,2,2-trifluoroethoxy)-1,6-dihydropyridin-3-yl]phenyl}ethanesulfonamide]	37.1	5.99	115	71.0 @ 3 mg/kg %	% TGD (tumor growth delay) [6, 11]: 11%; % TGI (tumor growth inhibition) ([6]; 1 mg/kg/day PO, QDx21, tumor volumes study day 27): 6%; % TGD (tumor growth delay) [6, 10]: 42%; % TGI (tumor growth inhibition) [6, 12]: 56* %
CCS(=O)(=O)Nc1ccc(Oc2ccc(F)cc2F)c(-c2cn(C)c(=O)cc2OCC2(C)CC2(F)F)c1 (stereo not drawn) [Example 335, N-[3-{4-[(2,2-difluoro-1-methylcyclopropyl)methoxy]-1-methyl-6-oxo-1,6-dihydropyridin-3-yl}-4-(2,4-difluorophenoxy)phenyl]ethanesulfonamide]	95.3	15.1	239	50.9 @ 3 mg/kg %	
CCS(=O)(=O)Nc1ccc(Oc2ccc(F)cc2F)c(-c2cn(C)c(=O)cc2-n2cccn2)c1 [Example 346, N-{4-(2,4-difluorophenoxy)-3-[1-methyl-6-oxo-4-(1H-pyrazol-1-yl)-1,6-dihydropyridin-3-yl]phenyl}ethanesulfonamide]	41.5	13	264	48.6 @ 3 mg/kg %	
CCOc1cc(=O)n(C)cc1-c1cc(NS(=O)(=O)CC)ccc1Oc1ccc(C#N)cc1 [Example 358, N-[4-(4-cyanophenoxy)-3-(4-ethoxy-1-methyl-6-oxo-1,6-dihydropyridin-3-yl)phenyl]ethanesulfonamide]	7.8	7.61	52.6	60.5 @ 3 mg/kg %	
CCNc1cc(=O)n(C)cc1-c1cc(NS(=O)(=O)CC)ccc1Oc1ccc(F)cc1F [Example 363, N-{4-(2,4-difluorophenoxy)-3-[4-(ethylamino)-1-methyl-6-oxo-1,6-dihydropyridin-3-yl]phenyl}ethanesulfonamide]	4.94	1.53	29.6	42.7 @ 3 mg/kg %	
CCS(=O)(=O)Nc1ccc(Oc2ccc(F)cc2F)c(-c2cn(C)c(=O)cc2OC2CCC2)c1 [Example 367, N-{3-[4-(cyclobutyloxy)-1-methyl-6-oxo-1,6-dihydropyridin-3-yl]-4-(2,4-difluorophenoxy)phenyl}ethanesulfonamide]	2.11	0.528	18.9	80.0 @ 3 mg/kg %	
CCOc1cc(=O)n(C)cc1-c1cc(S(=O)(=O)CC)ccc1OCC1CC1(F)F (stereo not drawn) [Example 368, 5-{2-[(2,2-difluorocyclopropyl)methoxy]-5-(ethylsulfonyl)phenyl}-4-ethoxy-1-methylpyridin-2(1H)-one]	19.6	28.6	96.2	72.4 @ 3 mg/kg %	
CCOc1cc(=O)n(C)cc1-c1cc(S(=O)(=O)C(C)C)ccc1Oc1ccc(F)cc1F [Example 369, 5-[2-(2,4-difluorophenoxy)-5-(propan-2-ylsulfonyl)phenyl]-4-ethoxy-1-methylpyridin-2(1H)-one]	5.29	2.42	28.1	38.0 @ 3 mg/kg %	
CCOc1cc(=O)n(C)cc1-c1cc(S(=O)(=O)C2CC2)ccc1Oc1ccc(F)cc1F [Example 371, 5-[5-(cyclopropylsulfonyl)-2-(2,4-difluorophenoxy)phenyl]-4-ethoxy-1-methylpyridin-2(1H)-one]	8.73	2.29	40.9	57.6 @ 3 mg/kg %	
CCOc1cc(=O)n(C)cc1-c1cc(S(=O)(=O)CC)ccc1Oc1ccc(F)cc1F [Example 375, 5-[2-(2,4-difluorophenoxy)-5-(ethylsulfonyl)phenyl]-4-ethoxy-1-methylpyridin-2(1H)-one]				84.4 @ 3 mg/kg %	Ki [1, 13]: 12.9 nM; Ki [2, 13]: 3.22 nM; EC50 ([3]; 72 hours with compound): 40.2 nM
CCOc1cc(=O)n(C)cc1-c1cc(NS(=O)(=O)CC)ccc1Oc1ccc(OC(F)(F)F)cc1 [Example 387, N-{3-(4-ethoxy-1-methyl-6-oxo-1,6-dihydropyridin-3-yl)-4-[4-(trifluoromethoxy)phenoxy]phenyl}ethanesulfonamide]				54.3 @ 3 mg/kg %	Ki [1, 13]: 69.1 nM; Ki [2, 13]: 7.87 nM; EC50 ([3]; 72 hours with compound): 61.8 nM
CCOc1cc(=O)n(C)cc1-c1cc(NS(=O)(=O)CC)ccc1Oc1ccc(Cl)cc1 [Example 400, N-[4-(4-chlorophenoxy)-3-(4-ethoxy-1-methyl-6-oxo-1,6-dihydropyridin-3-yl)phenyl]ethanesulfonamide]				66.4 @ 3 mg/kg %	Ki [1, 13]: 7.21 nM; Ki [2, 13]: 1.81 nM; EC50 ([3]; 72 hours with compound): 18.1 nM
